Measurements from PMC3909116 (PLoS ONE, 2014).
Read-outs that look alike come from different tables or passages of the source.

Key:
M. tuberculosis = conditions: against M. tuberculosis; cited from earlier work
M. tuberculosis H37Rv = assay type: in vivo
in vivo = experiment: in vivo; set-up: species or system Balb/c mice; conditions: male, Balb/c, mouse, po, 30 mg/kg
Experimental: Samples were analyzed by LC-MS.
(A) Mouse survival curves from maximum tolerated dose study. All mice (n = 5) received one dose daily 6 times weekly for 4 weeks. 80% aqueous propylene glycol, (vehicle control).
Half-life and sequential exposure time of drug in serum is critical for its in vivo efficacious activity.

Structure (SMILES)	MIC (M. tuberculosis)	also measured
C[C@]1(COc2ccc(N3CCC(Oc4ccc(OC(F)(F)F)cc4)CC3)cc2)Cn2cc([N+](=O)[O-])nc2O1 [Delamanid]	0.006 to 0.024 µg/mL	
NNC(=O)c1ccncc1 [INH, isoniazid]	0.3 µM	reduction of M. tuberculosis bacterial load in the spleen (M. tuberculosis H37Rv; relative to counts at initiation of chemotherapy (4.26 log10), Balb/c mice, oral once daily 6 times per week for 4 weeks, ND-09759 30 mg/kg, INH 25 mg/kg, RMP 20 mg/kg): 0.38 log10; reduction of M. tuberculosis bacterial load in the lung (M. tuberculosis H37Rv; relative to counts at initiation of chemotherapy (5.18 log10), Balb/c mice, oral once daily 6 times per week for 4 weeks, ND-09759 30 mg/kg, INH 25 mg/kg, RMP 20 mg/kg): 0.27 log10
CC(=O)NC[C@H]1CN(c2ccc(N3CCOCC3)c(F)c2)C(=O)O1 [Linezolid]	0.25 to 1 µg/mL	
Cc1ccn2c(C(=O)NCc3ccc(Oc4ccc(Cl)cc4)cc3)c(C)nc2c1 [ND-09759, N-(4-(4-chlorophenoxy)benzyl)-2,7-dimethylimidazo[1,2-a]pyridine-3-carboxamide]		AUC(0-t) (in vivo): 22.2 µg·h/mL; Cmax (in vivo): 2.9 µg/mL; half-life (in vivo): 20.1 h
O=[N+]([O-])c1cn2c(n1)OC[C@@H](OCc1ccc(OC(F)(F)F)cc1)C2 [PA-824]	0.015 to 0.25 µg/mL	
CO[C@H]1/C=C/O[C@@]2(C)Oc3c(C)c(O)c4c(O)c(c(/C=N/N5CCN(C)CC5)c(O)c4c3C2=O)NC(=O)/C(C)=C\C=C\[C@H](C)[C@H](O)[C@@H](C)[C@@H](O)[C@@H](C)[C@H](OC(C)=O)[C@@H]1C [RMP, rifampicin]	0.003 µM	reduction of M. tuberculosis bacterial load in the lung (M. tuberculosis H37Rv; in vivo): 0.23 log10; reduction of M. tuberculosis bacterial load in the spleen (M. tuberculosis H37Rv; in vivo): 0.35 log10
CC(C)=CCC/C(C)=C/CNCCNC1C2CC3CC(C2)CC1C3 (centres unmarked) [SQ109]	0.7 to 1.56 µM	
COc1nc2ccc(Br)cc2cc1[C@@H](c1ccccc1)[C@@](O)(CCN(C)C)c1cccc2ccccc12 [TMC 207]	0.030−0.120 µg/ml	
